The values that follow come from patent US7691382B2, “Antiviral polypeptides comprising tandem repeats of APOE 141-149 and variants thereof” (priority 2003, dated 2010).

Peptide text beside a SMILES is read from it.

For the first assay, the system named is HSV1. In kind it is cell-based, Human herpes simplex virus type 1.
Conditions: not given
The protocol: African Green Monkey Kidney (Vero) cells were maintained in Eagle's minimum essential medium with Earle's salt (EMEM) and supplemented with 10% foetal calf serum (heat-inactivated), 4 mM L-glutamine, and 1% (v/v) nonessential amino acids, plus penicillin and streptomycin (100 IU/mg and […], respectively) (maintenance medium referred to as 10% EMEM). The cells were incubated at 37° C. in a humidified atmosphere of air with 5% CO2.
On harvesting, monolayers were washed in phosphate-buffered saline (PBS), and dislodged by incubating with trypsin in PBS for 30 min, before inactivating trypsin by addition of an equal volume of 10% EMEM and centrifuging at 500 g (5 min, 4° C.). Cell pellets were resuspended in 10% EMEM, prior to cell counting and seeding of 24-well plates. For antiviral assays, medium containing only 0.5% FCS was used (referred to as 0.5% EMEM).
Three separate passages of HSV1 virus were prepared by infecting Vero cells, and preparing semi-pure suspensions of virus from tissue culture supernatant and cell lysates, before freezing aliquots of virus at −85° C. Viral infectivity was assessed by carrying out plaque assays on serial dilutions of thawed aliquots (expressed in pfu/ml).
Peptides were obtained in lyophilised form from a commercial supplier (AltaBioscience, University of Birmingham or Advanced Biomedical), and were produced at 5 micromole scale. N-terminals were protected by addition of an acetyl group, and the C-terminals were protected by addition of an amide group.
Small quantities of peptide were weighed in sterile Eppendorf tubes, before addition of sufficient 0.5% EMEM to produce a 1.5 mM stock solution, which was frozen at −20° C. in aliquots.
Vero cells were seeded at 125,000 cells per well in 10% EMEM, and were incubated overnight resulting in confluent monolayers. […] Virus stocks (p3) were thawed, and diluted in 0.5% EMEM such that there were around 100 pfu in 100 μl. Each 24-well plate was inoculated separately. Firstly 100 μl of virus stock was added to the peptide or control medium arranged on a 96-well plate. This was incubated at 37° C. for ten minutes before inoculation. Medium was removed from four wells of a 24-well plate containing confluent Vero, and the 200 μl inoculum added to the appropriate well. Once all wells were treated, the 24-well plate was incubated for a further 60-80 minutes. Finally the peptide-containing inoculum was removed, and 1 ml of 1% EMEM containing 1% carboxymethylcellulose was added to each well. Plates were incubated for a further 22 hours or in some experiments 40 hours, before removal of overlay, and addition of 10% formaldehyde in PBS. After a further one hour incubation, fixative was removed, monolayers washed several times with tap water, and stained with carbol fuchsin solubilised in water. After 30 minutes stain was removed, and plates washed several times with tap water, before being air dried. Plaques were counted using an Olympus IX70 Inverting Microscope, and antiviral effect expressed as a percentage of the control value for each peptide concentration. The IC50 was calculated from plots of inhibitory effect against peptide concentration.
The IC50 is the midpoint of a concentration-inhibition curve. On to `CC[C@H](C)[C@H](NC(=O)[C@H](CO)NC(=O)[C@H](CO)NC(=O)[C@H](C)NC(=O)[C@H](CCCNC(=N)N)NC(=O)[C@H](CO)NC(=O)[C@H](Cc1ccccc1)NC(=O)[C@H](Cc1c[nH]cn1)NC(=O)[C@H](CC(=O)O)NC(=O)[C@H](CCC(N)=O)NC(=O)[C@H](CCSC)NC(=O)[C@@H](NC(=O)[C@H](CC(=O)O)NC(=O)[C@H](CC(C)C)NC(=O)[C@H](CCSC)NC(=O)[C@H](Cc1c[nH]cn1)NC(C)=O)C(C)C)C(=O)N[C@H](C(=O)N[C@@H](CC(=O)O)C(=O)N[C@@H](CCC(=O)O)C(=O)N[C@@H](CC(C)C)C(N)=O)[C@@H](C)CC` [GIN 29] (Ac-HMLDVMQDHFSRASSIIDEL-NH2), for which the IC50 was 38.5 µM.

On to `CSCC[C@H](NC(=O)[C@H](CCSC)NC(=O)[C@H](CCCNC(=N)N)NC(=O)[C@H](CCCCN)NC(=O)[C@H](CCCNC(=N)N)NC(=O)[C@H](CCSC)NC(=O)[C@H](CCCCN)NC(=O)[C@H](CCCNC(=N)N)NC(=O)[C@H](CCSC)NC(=O)[C@H](CCSC)NC(=O)[C@H](CCSC)NC(=O)[C@H](CCCNC(=N)N)NC(=O)[C@H](CCCCN)NC(=O)[C@H](CCCNC(=N)N)NC(=O)[C@H](CCSC)NC(=O)[C@H](CCCCN)NC(=O)[C@H](CCCNC(=N)N)NC(=O)[C@H](CCSC)NC(C)=O)C(N)=O` [GIN 40] (Ac-MRKMRKRMMMRKMRKRMM-NH2), for which the half-inhibitory concentration (IC50) was > 30 µM.

Turning to `CC(=O)N[C@@H](CC(C)C)C(=O)N[C@@H](CCCNC(=N)N)C(=O)N[C@@H](CCC(N)=O)C(=O)N[C@@H](CC(C)C)C(=O)N[C@@H](CCCNC(=N)N)C(=O)N[C@@H](CCC(N)=O)C(=O)N[C@@H](CCCNC(=N)N)C(=O)N[C@@H](CC(C)C)C(=O)N[C@@H](CC(C)C)C(=O)N[C@@H](CC(C)C)C(=O)N[C@@H](CCCNC(=N)N)C(=O)N[C@@H](CCC(N)=O)C(=O)N[C@@H](CC(C)C)C(=O)N[C@@H](CCCNC(=N)N)C(=O)N[C@@H](CCC(N)=O)C(=O)N[C@@H](CCCNC(=N)N)C(=O)N[C@@H](CC(C)C)C(=O)N[C@@H](CC(C)C)C(N)=O` [GIN 44] (Ac-LRQLRQRLLLRQLRQRLL-NH2), inhibition was half-maximal at 40 µM (IC50).

`CC(=O)N[C@@H](Cc1ccccc1)C(=O)N[C@@H](CCCNC(=N)N)C(=O)N[C@@H](CCCCN)C(=O)N[C@@H](Cc1ccccc1)C(=O)N[C@@H](CCCNC(=N)N)C(=O)N[C@@H](CCCCN)C(=O)N[C@@H](CCCNC(=N)N)C(=O)N[C@@H](Cc1ccccc1)C(=O)N[C@@H](Cc1ccccc1)C(=O)N[C@@H](Cc1ccccc1)C(=O)N[C@@H](CCCNC(=N)N)C(=O)N[C@@H](CCCCN)C(=O)N[C@@H](Cc1ccccc1)C(=O)N[C@@H](CCCNC(=N)N)C(=O)N[C@@H](CCCCN)C(=O)N[C@@H](CCCNC(=N)N)C(=O)N[C@@H](Cc1ccccc1)C(=O)N[C@@H](Cc1ccccc1)C(N)=O` [MU 7] (Ac-FRKFRKRFFFRKFRKRFF-NH2): the concentration for half-maximal inhibition (IC50) was > 30 µM.

`CC[C@H](C)[C@H](NC(=O)[C@@H](NC(=O)[C@H](CCCNC(=N)N)NC(=O)[C@H](CCCCN)NC(=O)[C@H](CCCNC(=N)N)NC(=O)[C@@H](NC(=O)[C@H](CCCCN)NC(=O)[C@H](CCCNC(=N)N)NC(=O)[C@@H](NC(=O)[C@@H](NC(=O)[C@@H](NC(=O)[C@H](CCCNC(=N)N)NC(=O)[C@H](CCCCN)NC(=O)[C@H](CCCNC(=N)N)NC(=O)[C@@H](NC(=O)[C@H](CCCCN)NC(=O)[C@H](CCCNC(=N)N)NC(=O)[C@@H](NC(C)=O)[C@@H](C)CC)[C@@H](C)CC)[C@@H](C)CC)[C@@H](C)CC)[C@@H](C)CC)[C@@H](C)CC)[C@@H](C)CC)C(N)=O` [MU 8] (Ac-IRKIRKRIIIRKIRKRII-NH2): the IC50 is > 30 µM.

On to `CC(=O)N[C@@H](CCC(N)=O)C(=O)N[C@@H](CCCNC(=N)N)C(=O)N[C@@H](CCCCN)C(=O)N[C@@H](CCC(N)=O)C(=O)N[C@@H](CCCNC(=N)N)C(=O)N[C@@H](CCCCN)C(=O)N[C@@H](CCCNC(=N)N)C(=O)N[C@@H](CCC(N)=O)C(=O)N[C@@H](CCC(N)=O)C(=O)N[C@@H](CCC(N)=O)C(=O)N[C@@H](CCCNC(=N)N)C(=O)N[C@@H](CCCCN)C(=O)N[C@@H](CCC(N)=O)C(=O)N[C@@H](CCCNC(=N)N)C(=O)N[C@@H](CCCCN)C(=O)N[C@@H](CCCNC(=N)N)C(=O)N[C@@H](CCC(N)=O)C(=O)N[C@@H](CCC(N)=O)C(N)=O` [MU 9] (Ac-QRKQRKRQQQRKQRKRQQ-NH2), for which the 50% inhibitory concentration (IC50) was > 30 µM.

Turning to `CC(=O)N[C@@H](CC(N)=O)C(=O)N[C@@H](CCCNC(=N)N)C(=O)N[C@@H](CCCCN)C(=O)N[C@@H](CC(N)=O)C(=O)N[C@@H](CCCNC(=N)N)C(=O)N[C@@H](CCCCN)C(=O)N[C@@H](CCCNC(=N)N)C(=O)N[C@@H](CC(N)=O)C(=O)N[C@@H](CC(N)=O)C(=O)N[C@@H](CC(N)=O)C(=O)N[C@@H](CCCNC(=N)N)C(=O)N[C@@H](CCCCN)C(=O)N[C@@H](CC(N)=O)C(=O)N[C@@H](CCCNC(=N)N)C(=O)N[C@@H](CCCCN)C(=O)N[C@@H](CCCNC(=N)N)C(=O)N[C@@H](CC(N)=O)C(=O)N[C@@H](CC(N)=O)C(N)=O` [MU 11] (Ac-NRKNRKRNNNRKNRKRNN-NH2), the IC50 turned out to be 27.5 µM.

Compound `CC(=O)N[C@@H](CCCNC(=N)N)C(=O)N[C@@H](CCCNC(=N)N)C(=O)N[C@@H](CCCCN)C(=O)N[C@@H](CCCNC(=N)N)C(=O)N[C@@H](CCCNC(=N)N)C(=O)N[C@@H](CCCCN)C(=O)N[C@@H](CCCNC(=N)N)C(=O)N[C@@H](CCCNC(=N)N)C(=O)N[C@@H](CCCNC(=N)N)C(=O)N[C@@H](CCCNC(=N)N)C(=O)N[C@@H](CCCNC(=N)N)C(=O)N[C@@H](CCCCN)C(=O)N[C@@H](CCCNC(=N)N)C(=O)N[C@@H](CCCNC(=N)N)C(=O)N[C@@H](CCCCN)C(=O)N[C@@H](CCCNC(=N)N)C(=O)N[C@@H](CCCNC(=N)N)C(=O)N[C@@H](CCCNC(=N)N)C(N)=O` [MU 16] (Ac-RRKRRKRRRRRKRRKRRR-NH2) showed an IC50 of 7.5 µM.

`CC(=O)N[C@@H](CCCCN)C(=O)N[C@@H](CCCNC(=N)N)C(=O)N[C@@H](CCCCN)C(=O)N[C@@H](CCCCN)C(=O)N[C@@H](CCCNC(=N)N)C(=O)N[C@@H](CCCCN)C(=O)N[C@@H](CCCNC(=N)N)C(=O)N[C@@H](CCCCN)C(=O)N[C@@H](CCCCN)C(=O)N[C@@H](CCCCN)C(=O)N[C@@H](CCCNC(=N)N)C(=O)N[C@@H](CCCCN)C(=O)N[C@@H](CCCCN)C(=O)N[C@@H](CCCNC(=N)N)C(=O)N[C@@H](CCCCN)C(=O)N[C@@H](CCCNC(=N)N)C(=O)N[C@@H](CCCCN)C(=O)N[C@@H](CCCCN)C(N)=O` [MU 18] (Ac-KRKKRKRKKKRKKRKRKK-NH2) gave a half-maximal inhibitory concentration (IC50) of 7.5 µM.

The same assay, now with this note: Examples 2 and 3.
`CC(=O)N[C@@H](Cc1ccc(O)cc1)C(=O)N[C@@H](CCCNC(=N)N)C(=O)N[C@@H](CCCCN)C(=O)N[C@@H](Cc1ccc(O)cc1)C(=O)N[C@@H](CCCNC(=N)N)C(=O)N[C@@H](CCCCN)C(=O)N[C@@H](CCCNC(=N)N)C(=O)N[C@@H](Cc1ccc(O)cc1)C(=O)N[C@@H](Cc1ccc(O)cc1)C(=O)N[C@@H](Cc1ccc(O)cc1)C(=O)N[C@@H](CCCNC(=N)N)C(=O)N[C@@H](CCCCN)C(=O)N[C@@H](Cc1ccc(O)cc1)C(=O)N[C@@H](CCCNC(=N)N)C(=O)N[C@@H](CCCCN)C(=O)N[C@@H](CCCNC(=N)N)C(=O)N[C@@H](Cc1ccc(O)cc1)C(=O)N[C@@H](Cc1ccc(O)cc1)C(N)=O` [GIN 41] (Ac-YRKYRKRYYYRKYRKRYY-NH2): the “efficacy for reducing HSV1 infectivity (in words)” value was “also had efficacy”.

The assay is the same for the next values; noted with them: HSV1, Vero cells, Table 5 (Example 2); read-out: Apparent IC50.
`CC(=O)N[C@@H](CC(=O)O)C(=O)N[C@@H](Cc1c[nH]c2ccccc12)C(=O)N[C@@H](CC(C)C)C(=O)N[C@@H](CCCCN)C(=O)N[C@@H](C)C(=O)N[C@@H](Cc1ccccc1)C(=O)N[C@@H](Cc1ccc(O)cc1)C(=O)N[C@@H](CC(=O)O)C(=O)N[C@@H](CCCCN)C(=O)N[C@H](C(=O)N[C@@H](C)C(=O)N[C@@H](CCC(=O)O)C(=O)N[C@@H](CCCCN)C(=O)N[C@@H](CC(C)C)C(=O)N[C@@H](CCCCN)C(=O)N[C@@H](CCC(=O)O)C(=O)N[C@@H](C)C(=O)N[C@@H](Cc1ccccc1)C(N)=O)C(C)C` [GIN 22] (Ac-DWLKAFYDKVAEKLKEAF-NH2): the IC50 was determined as 36 µM.

The same assay, now with this note: HSV-1, Vero cells, Table 6 (Example 3); read-out: IC50.
As to `CC(=O)N[C@@H](CC(=O)O)C(=O)N[C@@H](Cc1c[nH]c2ccccc12)C(=O)N[C@@H](CC(C)C)C(=O)N[C@@H](CCCCN)C(=O)N[C@@H](C)C(=O)N[C@@H](Cc1ccccc1)C(=O)N[C@@H](Cc1ccc(O)cc1)C(=O)N[C@@H](CC(=O)O)C(=O)N[C@@H](CCCCN)C(=O)N[C@H](C(=O)N[C@@H](C)C(=O)N[C@@H](CCC(=O)O)C(=O)N[C@@H](CCCCN)C(=O)N[C@@H](CC(C)C)C(=O)N[C@@H](CCCCN)C(=O)N[C@@H](CCC(=O)O)C(=O)N[C@@H](C)C(=O)N[C@@H](Cc1ccccc1)C(N)=O)C(C)C` [GIN 22] (Ac-DWLKAFYDKVAEKLKEAF-NH2), the half-maximal inhibitory concentration (IC50) came out at 36 µM.
